According to ChEMBL document CHEMBL3124802, “Scrutinizing the scaffolds of marine biosynthetics from different source organisms: Gram-negative cultured bacterial products enter center stage” (J Nat Prod, 2014):
≈ marks a conversion by molar mass, not a printed value. Where a SMILES comes first, the peptide text is derived from it. Bridges are numbered along the chain shown (N, C = ends). The star is where a group is joined. X1 = O=C(/C=C/C=C/C=C/C=C/c1ccc(O)c(Br)c1)*

Tests used:
[1] = Cytotoxicity against sea urchin eggs; design: species or system Egg; details: strongylocentrotus intermedius, read-out: MIC
[2] = Antioxidant activity assessed as singlet oxygen quenching activity; assay type: functional
[3] = tested on: Candida albicans; assay: Antimicrobial activity against Candida albicans; assay type: functional

| Compound | MCC [1] | further results |
| --- | --- | --- |
| CC[C@@H](C)[C@@H]1NC(=O)[C@H](CC(N)=O)NC(=O)[C@H](CC(N)=O)NC(=O)[C@H](C(C)C)NC(=O)[C@@H](NC(=O)/C=C/C=C/C=C/C=C/c2ccc(O)c(Br)c2)[C@@H](C)OC1=O | 40 µg/mL | – |
| CC[C@@H](C)[C@@H]1NC(=O)[C@H](CC(N)=O)NC(=O)[C@H](CC(N)=O)NC(=O)[C@H](C(C)C)NC(=O)[C@@H](NC(=O)/C=C/CCCCCCc2ccc(O)c(Br)c2)[C@@H](C)OC1=O | 40 µg/mL | – |
| CC(/C=C/C=C(C)/C=C/C=C(\C)C(=O)O)=C\C=C\C=C(C)\C=C\C=C(C)\C=C\C=C(/C)C(=O)O[C@@H]1OC[C@@H](O)[C@H](O)[C@H]1OC(=O)CCCCCCCCCCC(C)C | – | IC50 [2]: 5.1 µM |
| CC(C)C[C@@H]1NC(=O)[C@H](CC(N)=O)NC(=O)[C@H](CC(N)=O)NC(=O)[C@H](C(C)C)NC(=O)[C@@H](NC(=O)/C=C/C=C/C=C/C=C/c2ccc(O)c(Br)c2)[C@@H](C)OC1=O (X1-TVNNL; ester 1-C) | 40 µg/mL | – |
| CC[C@@H](C)[C@@H]1NC(=O)[C@H](CC(N)=O)NC(=O)[C@H](CC(N)=O)NC(=O)[C@H](C(C)C)NC(=O)[C@@H](NC(=O)CCCCCCCCc2ccc(O)cc2)[C@@H](C)OC1=O | 40 µg/mL | – |
| C/C1=C\[C@H](C)C[C@H](C)OC(=O)C[C@H](c2ccc(O)cc2)NC(=O)[C@@H](Cc2c(Br)[nH]c3ccccc23)N(C)C(=O)[C@H](C)NC(=O)[C@@H](C)C1 [JASPAMIDE] | – | MIC [3]: 25 µg/mL (≈ 35.2 µM) |
| CC[C@@H](C)[C@@H]1NC(=O)[C@H](CC(N)=O)NC(=O)[C@H](CC(N)=O)NC(=O)[C@H](C(C)C)NC(=O)[C@@H](NC(=O)CCCCCCCCc2ccc(O)c(Br)c2)[C@@H](C)OC1=O | 40 µg/mL | – |
